From patent publication US8435978B2, “Substituted sulfonamide compounds” (Gruenenthal GmbH, priority 2006, dated 2013)
Structures can show the parent of a compound that is named as a salt.

Columns and labels:
human B1R receptor = target: T1, human B1R receptor (Homo sapiens, UniProt P46663); assay: Functional study on the bradykinin receptor 1 (B1R), FLIPR Ca2+ assay, hB1R cells; format: cell-based; settings: agonist Lys-Des-Arg9-bradykinin 0.5 nM, % inhibition compared with the maximum achievable inhibition; for inhibition at 10 µM: CHO-K1, test substance 10 μM, read-out: B1R Antagonism, human [10 μM] % Inhibition; for B1R Antagonism, human [10 μM] % Inhibition: test substance 10 μM, hB1R CHO K1 cells
T1 construct: host or cells: CHO K1 cells (Chinese hamster ovary), stably transfected
T1 sequence (P46663 1-353): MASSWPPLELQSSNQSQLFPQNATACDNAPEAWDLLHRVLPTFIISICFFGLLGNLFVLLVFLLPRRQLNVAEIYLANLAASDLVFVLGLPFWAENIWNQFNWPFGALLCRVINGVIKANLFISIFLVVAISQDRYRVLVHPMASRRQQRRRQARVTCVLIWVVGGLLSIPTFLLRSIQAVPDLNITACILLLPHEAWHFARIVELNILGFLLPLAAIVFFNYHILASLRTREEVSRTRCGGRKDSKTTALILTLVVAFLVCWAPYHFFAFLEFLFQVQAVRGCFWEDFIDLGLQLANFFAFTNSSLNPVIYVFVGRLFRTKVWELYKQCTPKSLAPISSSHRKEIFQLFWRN
Procedure, shortened: (§1)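 Cells were dye-loaded 60 min at 37 °C, equilibrated 20 min at room temperature, then given 10 μM compound. Ten minutes later the species-matched agonist was added (0.5 nM Lys-Des-Arg9-bradykinin, human; 100 nM Des-Arg9-bradykinin, rat) and Ca2+ influx suppression expressed as % of maximum inhibition.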

B1R receptor of the rat = target: T2, B1R receptor of the rat (Rattus norvegicus, UniProt P97583); assay: Functional study on the bradykinin receptor 1 (B1R), FLIPR Ca2+ assay, rB1R cells; format: cell-based; settings: agonist Des-Arg9-bradykinin 100 nM, % inhibition compared with the maximum achievable inhibition; for inhibition at 10 µM: CHO-K1, test substance 10 μM, read-out: B1R Antagonism, rat [10 μM] % Inhibition; for B1R Antagonism, rat [10 μM] % Inhibition: test substance 10 μM, rB1R CHO K1 cells
T2 construct: host or cells: CHO K1 cells (Chinese hamster ovary), stably transfected
T2 sequence (P97583 1-337): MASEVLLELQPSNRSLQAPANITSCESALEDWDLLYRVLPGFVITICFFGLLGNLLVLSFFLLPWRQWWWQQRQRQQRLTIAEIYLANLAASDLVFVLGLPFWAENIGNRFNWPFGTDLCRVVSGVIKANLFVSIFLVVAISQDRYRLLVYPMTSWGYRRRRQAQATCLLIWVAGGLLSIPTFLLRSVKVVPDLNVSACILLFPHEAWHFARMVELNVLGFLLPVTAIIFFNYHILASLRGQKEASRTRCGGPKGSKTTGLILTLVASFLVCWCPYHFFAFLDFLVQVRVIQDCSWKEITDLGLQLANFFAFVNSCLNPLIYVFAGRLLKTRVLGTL
Procedure, shortened: as §1

Cc1cc(C)c(S(=O)(=O)N2CCCCC2COCC(=O)Nc2cccc(CN3CCCCC3)c2)c(C)c1 (stereo not drawn) [Example 76, N-(3-piperidin-1-ylmethyl-phenyl)-2-[1-(2,4,6-trimethyl-phenylsulfonyl)-piperidin-2-ylmethoxy]-acetamide]
inhibition at 10 µM (human B1R receptor): 48.9%
inhibition at 10 µM (B1R receptor of the rat): 40.3%

O=C(COCC1CCCCN1S(=O)(=O)c1c(Cl)cccc1Cl)N1CCN(Cc2ccc(Cl)cc2)CC1 (stereo not drawn) [Example 407, 1-(4-(4-chlorobenzyl)piperazin-1-yl)-2-((1-(2,6-dichlorophenylsulfonyl)piperidin-2-yl)methoxy)ethanone]
inhibition at 10 µM (human B1R receptor): 102%
inhibition at 10 µM (B1R receptor of the rat): 99%

CCN1CCN(C(=O)COCC2CCCN2S(=O)(=O)c2c(Cl)cc(Cl)cc2Cl)CC1 (stereo not drawn) [Example 295, 1-(4-ethylpiperazin-1-yl)-2-((1-(2,4,6-trichlorophenylsulfonyl)pyrrolidin-2-yl)methoxy)ethanone]
inhibition at 10 µM (human B1R receptor): 96.7%
inhibition at 10 µM (B1R receptor of the rat): 103%

N-(4-(dimethylamino)butyl)-2-((1-(2,4,6-trichlorophenylsulfonyl)pyrrolidin-2-yl)methoxy)acetamide [Example 294]
B1R Antagonism, human [10 μM] % Inhibition (human B1R receptor): 105.91%
B1R Antagonism, rat [10 μM] % Inhibition (B1R receptor of the rat): 100%

CN1CCN(c2ccc(CNC(=O)COCC3CCCN3S(=O)(=O)c3c(Cl)cc(Cl)cc3Cl)cc2)CC1 (stereo not drawn) [Example 29, N-[4-(4-methyl-piperazin-1-yl)-benzyl]-2-[1-(2,4,6-trichloro-phenylsulfonyl)-pyrrolidin-2-ylmethoxy]-acetamide]
inhibition at 10 µM (human B1R receptor): 84.4%
inhibition at 10 µM (B1R receptor of the rat): 110%

O=C(COCC1CCCCN1S(=O)(=O)c1c(Cl)cccc1Cl)N1CCN(c2ccccc2F)CC1 (stereo not drawn) [Example 442, 2-((1-(2,6-dichlorophenylsulfonyl)piperidin-2-yl)methoxy)-1-(4-(2-fluorophenyl)piperazin-1-yl)ethanone]
inhibition at 10 µM (human B1R receptor): 102%
inhibition at 10 µM (B1R receptor of the rat): 98.6%

CCc1ccc(CC2CCCCN2C(=O)COCC2CCCCN2S(=O)(=O)c2c(C)cc(C)cc2C)nc1 (stereo not drawn) [Example 228, 1-(2-((5-ethylpyridin-2-yl)methyl)piperidin-1-yl)-2-((1-(mesitylsulfonyl)piperidin-2-yl)methoxy)ethanone]
inhibition at 10 µM (human B1R receptor): 88.6%
inhibition at 10 µM (B1R receptor of the rat): 99.8%

COc1cc(C)c(S(=O)(=O)N2CCCC2COCC(=O)N(C)C(CN2CCOCC2)c2ccccc2)c(C)c1 (stereo not drawn) [Example 304, 2-((1-(4-methoxy-2,6-dimethylphenylsulfonyl)pyrrolidin-2-yl)methoxy)-N-methyl-N-(2-morpholino-1-phenylethyl)acetamide]
inhibition at 10 µM (human B1R receptor): 71.1%
inhibition at 10 µM (B1R receptor of the rat): 102%

COc1cc(C)c(S(=O)(=O)N2CCCCC2COCC(=O)N(CCN(C)C)Cc2ccccc2)c(C)c1 (stereo not drawn) [Example 361, N-benzyl-N-(2-(dimethylamino)ethyl)-2-((1-(4-methoxy-2,6-dimethylphenylsulfonyl)piperidin-2-yl)methoxy)acetamide]
inhibition at 10 µM (human B1R receptor): 93.4%
inhibition at 10 µM (B1R receptor of the rat): 101%

COc1cc(C)c(S(=O)(=O)N2CCCC2COCC(=O)NCc2ccc(N3CCN(C)CC3)cc2)c(C)c1 (stereo not drawn) [Example 302, 2-((1-(4-methoxy-2,6-dimethylphenylsulfonyl)pyrrolidin-2-yl)methoxy)-N-(4-(4-methylpiperazin-1-yl)benzyl)acetamide]
B1R Antagonism, human [10 μM] % Inhibition (human B1R receptor): 100.69%
B1R Antagonism, rat [10 μM] % Inhibition (B1R receptor of the rat): 102.41%

CN(C(=O)COCC1CCCCN1S(=O)(=O)c1c(Cl)cccc1Cl)[C@H]1CCN(Cc2ccccc2)C1 (stereo partly drawn) [Example 315, N—((S)-1-benzylpyrrolidin-3-yl)-2-((1-(2,6-dichlorophenylsulfonyl)piperidin-2-yl)methoxy)-N-methylacetamide]
inhibition at 10 µM (human B1R receptor): 105%
inhibition at 10 µM (B1R receptor of the rat): 101%

COc1cc(C)c(S(=O)(=O)N2CCCCC2COCC(=O)N2CCC(c3ccncc3)CC2)c(C)c1 (stereo not drawn) [Example 201, 2-((1-(4-methoxy-2,6-dimethylphenylsulfonyl)piperidin-2-yl)methoxy)-1-(4-(pyridin-4-yl)piperidin-1-yl)ethanone]
inhibition at 10 µM (human B1R receptor): 103%
inhibition at 10 µM (B1R receptor of the rat): 98.2%

COc1cc(C)c(S(=O)(=O)N2CCCC2COCC(=O)N2CCN(c3cccc(C(F)(F)F)c3)CC2)c(C)c1 (stereo not drawn) [Example 465, 2-((1-(4-methoxy-2,6-dimethylphenylsulfonyl)pyrrolidin-2-yl)methoxy)-1-(4-(3-(trifluoromethyl)phenyl)piperazin-1-yl)ethanone]
inhibition at 10 µM (human B1R receptor): 102%
inhibition at 10 µM (B1R receptor of the rat): 98.8%

Cc1cc(C)c(S(=O)(=O)N2Cc3ccccc3CC2COCC(=O)NCc2cccc(N3CCN(C)CC3)c2)c(C)c1 (stereo not drawn) [Example 33, N-[3-(4-methyl-piperazin-1-yl)-benzyl]-2-[2-(2,4,6-trimethyl-phenylsulfonyl)-1,2,3,4-tetrahydro-isoquinolin-3-ylmethoxy]-acetamide]
inhibition at 10 µM (human B1R receptor): 82.7%
inhibition at 10 µM (B1R receptor of the rat): 47.7%

COc1cc(C)c(S(=O)(=O)N2CCCC2COCC(=O)NCc2ccc(CN(C)C)cc2)c(C)c1 (stereo not drawn) [Example 35, N-(4-dimethylaminomethyl-benzyl)-2-[1-(4-methoxy-2,6-dimethyl-phenylsulfonyl)-pyrrolidin-2-ylmethoxy]-acetamide]
inhibition at 10 µM (human B1R receptor): 79.7%
inhibition at 10 µM (B1R receptor of the rat): 99%

COc1cc(C)c(S(=O)(=O)N2CCCCC2COCC(=O)N2CCC(N3CCN(C)CC3)CC2)c(C)c1 (stereo not drawn) [Example 112, 2-((1-(4-methoxy-2,6-dimethylphenylsulfonyl)piperidin-2-yl)methoxy)-1-(4-(4-methylpiperazin-1-yl)piperidin-1-yl)ethanone hydrochloride]
inhibition at 10 µM (human B1R receptor): 102%
inhibition at 10 µM (B1R receptor of the rat): 102%

COc1cc(C)c(S(=O)(=O)N2CCCCC2COCC(=O)Nc2cc(-c3ccc(Cl)cc3)n[nH]2)c(C)c1 (stereo not drawn) [Example 537, N-(3-(4-chlorophenyl)-1H-pyrazol-5-yl)-2-((1-(4-methoxy-2,6-dimethylphenylsulfonyl)piperidin-2-yl)methoxy)acetamide]
inhibition at 10 µM (human B1R receptor): 12.5%
inhibition at 10 µM (B1R receptor of the rat): 98.7%

COc1cc(C)c(S(=O)(=O)N2CCCCC2COCC(=O)N2CCN(CC3CCN(C)CC3)CC2)c(C)c1 (stereo not drawn) [Example 106, 2-((1-(4-methoxy-2,6-dimethylphenylsulfonyl)piperidin-2-yl)methoxy)-1-(4-((1-methylpiperidin-4-yl)methyl)piperazin-1-yl)ethanone dihydrochloride]
inhibition at 10 µM (human B1R receptor): 103%
inhibition at 10 µM (B1R receptor of the rat): 103%

COc1cc(C)c(S(=O)(=O)N2CCCCC2COCC(=O)N2CCN(c3cccc(C(F)(F)F)c3)CC2)c(C)c1 (stereo not drawn) [Example 509, 2-((1-(4-methoxy-2,6-dimethylphenylsulfonyl)piperidin-2-yl)methoxy)-1-(4-(3-(trifluoromethyl)phenyl)piperazin-1-yl)ethanone]
inhibition at 10 µM (human B1R receptor): 92.7%
inhibition at 10 µM (B1R receptor of the rat): 102%

CN(CCc1ccncc1)C(=O)COCC1CCCCN1S(=O)(=O)c1c(Cl)cc(Cl)cc1Cl (stereo not drawn) [Example 391, N-methyl-N-(2-(pyridin-4-yl)ethyl)-2-((1-(2,4,6-trichlorophenylsulfonyl)piperidin-2-yl)methoxy)acetamide]
inhibition at 10 µM (human B1R receptor): 97.8%
inhibition at 10 µM (B1R receptor of the rat): 102%

COc1cc(C)c(S(=O)(=O)N2CCCCC2COCC(=O)N(C)CCC2CCC(N3CCCC3)CC2)c(C)c1 (stereo not drawn) [Example 194, 2-((1-(4-methoxy-2,6-dimethylphenylsulfonyl)piperidin-2-yl)methoxy)-N-methyl-N-(2-(4-(pyrrolidin-1-yl)cyclohexyl)ethyl)acetamide]
inhibition at 10 µM (human B1R receptor): 103%
inhibition at 10 µM (B1R receptor of the rat): 100%

O=C(COCC1CCCCN1S(=O)(=O)c1c(Cl)cc(Cl)cc1Cl)NCC(c1cccnc1)N1CCOCC1 (stereo not drawn) [Example 256, N-(2-morpholino-2-(pyridin-3-yl)ethyl)-2-((1-(2,4,6-trichlorophenylsulfonyl)piperidin-2-yl)methoxy)acetamide]
inhibition at 10 µM (human B1R receptor): 50.2%
inhibition at 10 µM (B1R receptor of the rat): 91%

Cc1cc(C)c(S(=O)(=O)N2Cc3ccccc3CC2COCC(=O)NCC2CCCN(Cc3ccccc3)C2)c(C)c1 (stereo not drawn) [Example 41, N-(1-benzyl-piperidin-3-ylmethyl)-2-[2-(2,4,6-trimethyl-phenylsulfonyl)-1,2,3,4-tetrahydro-isoquinolin-3-ylmethoxy]-acetamide]
inhibition at 10 µM (human B1R receptor): 72.6%
inhibition at 10 µM (B1R receptor of the rat): 16.4%

COc1cc(C)c(S(=O)(=O)N2CCCCC2COCC(=O)NCc2ccc(CN3CCOCC3)cc2)c(C)c1 (stereo not drawn) [Example 24, 2-[1-(4-methoxy-2,6-dimethyl-phenylsulfonyl)-piperidin-2-ylmethoxy]-N-(4-morpholin-4-ylmethyl-benzyl)-acetamide]
inhibition at 10 µM (human B1R receptor): 92.2%
inhibition at 10 µM (B1R receptor of the rat): 107%
